Reference: patent US7332479B2, “Extracellular NAD+ and cADPR as potent anti-inflammatory agents” (University of Pittsburgh - of the Commonwealth System of …, priority 2003, dated 2008)

What was measured:
[1] = tested on: Caco-2 human enterocyte-like cells; assay: Paracellular permeability of Caco-2 monolayers, apical-to-basolateral clearance of FD4, cytomix; assay type: cell-based
Procedure: Cell Culture. Caco-2 human enterocyte-like cells were routinely maintained at 37° C. in DMEM with 10% FBS, as described by Han et al. ^9 All cells were fed by changing the cell culture medium twice per week. For experiments, cells were grown on Transwell inserts (0.4 μm pore size; Corning Costar Corp., Cambridge, Mass.) and used 14-17 days post-confluence. […] Caco-2 monolayers growing on permeable supports were left untreated or exposed to cytomix for 24 or 48 h in the absence or presence of graded concentrations of NAD^+ or adenosine. Paracellular permeability was determined by measuring the apical-to-basolateral flux of FD4. Epithelial permeability was unaffected when monolayers were incubated with NAD^+ alone. Exposing Caco-2 cells to cytomix increased the clearance of FD4 across the monolayers (FIG. 1A). Addition of NAD^+ ameliorated cytomix-induced epithelial hyperpermeability in a concentration-dependent manner. […] NAD^+ is structurally related to a nucleoside, adenosine, that is known to exert anti-inflammatory effects by binding to certain purinergic receptors;^24 accordingly, the possibility that activation of a receptor for adenosine was responsible for the amelioration of cytokine-induced hyperpermeability by NAD^+ was considered. To investigate this idea, Caco-2 monolayers were exposed to cytomix in the absence or presence of 10 μmol/L adenosine (FIG. 1A).

[2] = tested on: occludin and ZO-1 in Caco-2 cells; assay: ZO-1 and occludin in NP-40-insoluble fraction, immunoprecipitation and Western blot, Caco-2 cells exposed to cytomix; assay type: cell-based, human
mouse ileal mucosa = assay: Ileal mucosal permeability to FD4 (ex vivo everted gut sac) in LPS-injected mice; details: LPS 17 mg/kg IP, two 132 mg/kg doses (IV then IP 12 h later), ileum at 18 h
Procedure: Animals. This research complied with regulations regarding animal care as published by the National Institutes of Health and was approved by the Institutional Animal Use and Care Committee of the University of Pittsburgh. Male 7-8 week old C57Bl/6J mice weighing 20-25 g were from Jackson Laboratories (Bar Harbor, Me.). To induce a systemic inflammatory response, mice were injected intraperitoneally (IP) with Escherichia coli (strain O111:B4) LPS (17 mg/kg) dissolved in 1.0 ml of PBS. Control animals were injected with a similar volume of PBS. Some mice were treated with an intravenous (IV) injection (100 μL) of either PBS or 132 mg/kg NAD^+ in PBS given 5 min before LPS or PBS injection, and this injection was repeated IP 12 h later. Groups of mice were anesthetized with 60-90 mg/kg sodium pentobarbital 18 h after the first injection with PBS or LPS. Segments of ileum were harvested to assess mucosal permeability to FD4 using an ex vivo everted gut sac method as previously described.^20
In the setting of systemic inflammation, circulating blood monocytes often encounter lipopolysaccharide (LPS), a potent inflammatory molecule derived from the outer surface of Gram-negative bacteria. […]

Caco-2 cells = assay: Immunofluorescence microscopy of ZO-1 and occludin localization in Caco-2 cells exposed to cytomix; assay type: cell-based, human; details: cytomix 48 h, 10 μmol/L added at 0 and 24 h
Procedure: Immunofluorescence. All procedures were performed at 0-4° C. as described.^9 Caco-2 cells growing on 24 well clear Transwell inserts were fixed and stained with a mouse anti-ZO-1 monoclonal antibody (mAb; BD Translabs, Franklin Lakes, N.J.) and rabbit an anti-occludin polyclonal antibody diluted 1:100. The secondary antibodies were 5 μg/mL FITC-conjugated affinity-purified donkey anti-mouse IgG and 15 μg/mL TRITC-conjugated affinity-purified goat anti-rabbit IgG (Jackson ImmunoResearch Laboratories).
Immunofluorescence microscopy was used to assess the structure of TJs in Caco-2 cells grown on Transwells. The cells were either left untreated (FIG. 3; Panel CON) or exposed to cytomix for 48 h in the absence (Panel C48) or presence (Panel N10) of extracellular NAD^+ (10 μmol/L added at 0 and 24 h). The cells were permeabilized, fixed, and stained using FITC- and TRITC-conjugated antibodies directed against ZO-1 and occludin, respectively. In control confluent Caco-2 monolayers, these proteins both were predominantly localized to regions near cell-cell boundaries. Staining was even and continuous. Following treatment with cytomix, dispersed lesions appeared throughout the monolayer, in which immunostaining for ZO-1 at cell boundaries became faint, diffuse, and discontinuous. Exposure to cytomix also was associated with “ruffling” of ZO-1 and occludin immunostaining. […]

[3] = tested on: NO. production by Caco-2 cells; assay: NO. production (NO2- and NO3- in culture supernatants) by Caco-2 cells exposed to cytomix; assay type: cell-based, human
Procedure: (§1) Measurement of NO. production and iNOS gene expression. NO. production^21 was measured and RT-PCR ^22 for iNOS mRNA and 18S RNA were performed as described. The gels were captured using an imaging workstation (NucleoVision), and quantified with GelExpert™ 3.5. Relative expression of iNOS is reported after normalizing for 18S loading in FIG. 4B.
(§2) Accordingly, it was determined whether NAD^+ decreased the production of NO. (as assessed by measuring NO2^− and NO3^− in culture supernatants) by Caco-2 cells exposed to cytomix (similar study using RAW monocyte-like cells is not shown). […] Again, there was a biphasic response to NAD^+ treatment; provided maximal inhibition and higher doses inhibited less well. Thus, another inflammatory response, namely the induction of iNOS gene expression and the concomitant production of NO., is blocked by extracellular NAD^+ in both myeloid and epithelial cells.

[4] = tested on: inducible nitric oxide synthase (iNOS) mRNA; assay: iNOS mRNA expression by RT-PCR in Caco-2 cells exposed to cytomix; assay type: cell-based, human; details: biphasic response
Procedure: as §1, §2

NF-κB [5] = assay: NF-κB DNA binding by electrophoretic mobility shift assay, Caco-2 cells exposed to cytomix; assay type: cell-based, human
Procedure: Electrophoretic mobility shift assay (EMSA). Nuclear extracts were prepared and analyzed as described.^23 However, 38.3 μL of 10% NP-40 was used to lyse the cells, the nuclei were isolated by centrifugation at 310 g for 3 min, and the nuclear pellets were resuspended in 80 μL of Buffer II.
iNOS induction is dependent, in part, on activation of the transcription factor NF-κB, a transcription factor that is required for a variety of monocyte inflammatory responses, e.g., to LPS. Therefore, we tested the ability of NAD^+ to inhibit DNA binding by NF-κB in Caco-2 cells exposed to cytomix. […] NAD^+ alone had no effect on the nuclear levels of NF-κB.

NF-κB [6] = assay: Nuclear NF-κB levels by electrophoretic mobility shift assay, LPS-stimulated RAW 264.7 cells; assay type: cell-based, mouse; details: 10 ng/ml LPS, 15 min
Procedure: Additional studies were performed to show the potent anti-inflammatory capacity of extracellular NAD^+. RAW 264.7 cells in tissue culture dishes were stimulated with LPS prepared from Escherichia coli strain 011:B4, and the activation of NF-κB was measured. Some cells were exposed to 10 ng/ml LPS in the presence of 1-100 μM NAD. Nuclear proteins were extracted from the cells 15 min after exposure to the compounds, and NF-κB levels were determined using the electrophoretic mobility shift assay.
Thus, very low doses of extracellular NAD^+ can effectively block the activation of NF-κB, an important transcription factor mobilized during an inflammatory response.

TNF-α = assay: LPS-induced TNF-α release from RAW cells, ELISA; assay type: cell-based, mouse; details: 1 μM
Procedure: Whether NAD^+ could prevent the production of tumor necrosis factor α (TNF-α), a potent proinflammatory cytokine produced by activated monocytes and macrophages, was tested. Supernatants were collected from RAW cells treated with LPS in the absence or presence of NAD^+. TNF-α levels were quantitated by ELISA.

[7] = tested on: mice challenged with a lethal dose of Escherichia coli O111:B4 LPS; assay: LPS-induced mortality in mice; assay type: in vivo; details: LPS 17 mg/kg; intravenous and intraperitoneal, 1 mg/kg pre-treatment then 1 mg/kg every 6 h for five more doses

In the case of Nc1ncnc2c1ncn2[C@@H]1O[C@H](CO)[C@@H](O)[C@H]1O [Adenosine, adenosine, reference compound], the “induction of hyperpermeability by cytomix” value ([1]; 10 μmol/L) was “no effect” and the “decrease in NP-40-insoluble occludin or ZO-1” value ([2]; cytomix 48 h with 10 μM) was “failed to prevent”.
With Nc1ncnc2c1ncn2[C@@H]1O[C@H](COP(=O)(O)OP(=O)(O)OC[C@H]2OC(O)[C@H](O)[C@@H]2O)[C@@H](O)[C@H]1O (some centres unmarked) [ADP-ribose] the expression of occludin ([2]; cytomix, co-incubation with 10 or 100 μmol/L) was “failed to preserve occludin expression”.
In the case of NC(=O)c1ccc[n+]([C@@H]2O[C@H](COP(=O)([O-])OP(=O)(O)OC[C@H]3O[C@@H](n4cnc5c(N)ncnc54)[C@H](O)[C@@H]3O)[C@@H](O)[C@H]2O)c1 [NAD^+, nicotinamide adenine dinucleotide], the “protection against cytomix-induced hyperpermeability” value ([1]; 10 and 100 μmol/L) was “statistically significant”, the cytomix-induced epithelial hyperpermeability ([1]; cytomix 24 or 48 h, graded concentrations, concentration-dependent) was “ameliorated” and the “Epithelial permeability (FD4 flux)” value ([1]; monolayers incubated with NAD+ alone, no cytomix) was “unaffected”. For the same compound, the “increase in mucosal permeability to FD4 induced by LPS” value (mouse ileal mucosa) was “significantly ameliorated”, the “occludin and ZO-1 in NP-40-insoluble complexes” value ([2]; cytomix 48 h with 10 or 100 μmol/L) was “normal levels of these proteins were present” and the “staining of ZO-1 and occludin at cell-cell boundaries” value (Caco-2 cells) was “continuous staining”. For the same compound, the “concentration giving maximal inhibition of NO. production” value ([3]; cytomix) was 100 µmol/L, the “inhibition of NO. production” value ([3]; cytomix, 1000 μmol/L compared with 100 μmol/L) was “inhibition was decreased” and the “cytomix-increased production of NO.” value ([3]; graded concentrations) was “inhibited in a concentration-dependent manner”. The “cytomix-increased expression of iNOS mRNA” value [4] was “blocked this effect”, the “cytomix-induced NF-κB activation” value (NF-κB [5]; 1 μmol/L, nuclear extracts 4 h) was “no effect” and the “nuclear levels of NF-κB” value (NF-κB [5]; NAD+ alone, no cytomix) was “no effect”. The “NF-κB DNA binding” value (NF-κB [5]; cytomix, 10 or 100 μmol/L, nuclear extracts 4 h) was “clearly decreased”, the “nuclear localization of NF-κB” value (NF-κB [6]; 1 μM) was “dramatically decreased” and the “nuclear NF-κB levels” value (NF-κB [6]; 100 μM) was “near baseline levels”. The “LPS-induced release of TNF-α” value (TNF-α) was “partially blocked” and the mortality [7] was “completely prevented mortality”.
